Reference: patent publication US20190183811A1, “COMPOSITION CONTAINING SQUALENE FOR IMPROVING MUSCLE FUNCTION AND PREVENTING MUSCLE DAMAGE” (AAT COSTECH CO., LTD., priority 2016, published 2019)

What was measured:
[1] = system: atrogin-1 mRNA in C2C12 muscle cells; test: RT-PCR of atrogin-1 mRNA expression in C2C12 muscle cells treated with squalene; assay type: cell-based; settings: cultured 12 hours, FIG. 3
Description: (§1) Thus, in order to identify whether the produced muscle proteins can also be protected against degradation through degradation-inhibitory activity of squalene, mRNA transcriptional expression levels of atrogin-1 and MuRF1 which are muscle-degrading proteins were checked.
(§2) Specifically, C2C12 muscle cells were treated with squalene and cultured for 12 hours while inducing differentiation, by performing the same method as in the above <Example 1>. The resulting cells were obtained. Total RNA was isolated from the obtained cells using a TRIzol reagent (Invitrogen, Carlsbad, Calif., USA). The isolated total RNA was quantitated using NanoDrop 1000 (Thermo Fisher Scientific Inc., Waltham, Mass., USA). The quantified 16 μL of RNA was synthesized into cDNA using Reverse Transcriptase Premix (ELPISBIOTECH. INC) and a PCR machine (Gene Amp PCR System 2700; Applied Biosystems, Foster City, Calif., USA) under a condition at 42° C. for 55 minutes and 70° C. for 15 minutes. 3 μL of cDNA out of the synthesized cDNA, specific primers (BIONEER CORPORATION, Daejeon, Korea) as shown in the following [Table 1], and a PCR premix (ELPISBIOTECH. INC) were mixed, and PCR was performed by repeating 30 cycles of 95° C. for 30 seconds, 60° C. for 1 minute, and 72° C. for 1 minute. […]

[2] = system: MuRF1 mRNA in C2C12 muscle cells; test: RT-PCR of MuRF1 mRNA expression in C2C12 muscle cells treated with squalene; assay type: cell-based; settings: cultured 12 hours, FIG. 3
Description: as §1, §2

[3] = system: p-p70S6K in C2C12 muscle cells; test: Western blot of p-p70S6K protein in C2C12 muscle cells treated with squalene; assay type: cell-based; settings: FIG. 2
Description: Thus, in order to identify this fact in a more specific manner, a phosphorylation-induced activity level of p70S6K protein, which is known to be involved in an mRNA translation process in muscle cells, was checked, instead of an expression level of p-mTOR. Specifically, C2C12 muscle cells were treated with squalene and cultured while inducing differentiation, by performing the same method as in the above <Example 1>. The resulting cells were obtained and subjected to western blotting. A p-p70S6K antibody (Santa Cruz Biotechnology, Inc., Santa Cruz, Calif., USA) was used as a primary antibody for western blotting.

[4] = system: immobilized rats (muscle atrophy and muscle damage); test: Myofiber cross-sectional area in tibialis anterior muscle (H&E staining, Image J); assay type: in vivo, rats (C57BL/6J); settings: squalene 100 and 200 mg/kg/day oral for one week; vs immobilized group, **P<0.01; FIG. 6
Description: Seven-week-old male rats (C57BL/6J; DBL Co., Ltd.) were purchased as experimental animals, and experiments were conducted. All animals were kept at the Yonsei Laboratory Animal Research Center (YLARC, Seoul, Korea), and an environment under which the animals were kept was maintained at a temperature of 23±2° C. and a relative humidity of 55±10%. Before starting experiments, a total of 28 rats were randomly assigned to 7 rats per group, and the groups were divided into a normal group, an immobilized group, 100 mg/kg/day of squalene-administered group (squalene 100-administered group), and 200 mg/kg/day of squalene-administered group (squalene 200-administered group). After one week of adaptation, anesthesia was induced by intraperitoneal injection of 325 mg/kg of tribromoethanol (Sigma-Aldrich). […] One week later, the staples fixed on the gastrocnemius muscle and the sole were removed and squalene was orally administered at a concentration of 100 mg/kg and 200 mg/kg on a daily basis for one week. The normal group and the immobilized group were orally administered saline instead of squalene. […] In addition, myofibers were photographed and a cross-sectional area thereof was measured with an Image J program (National Institutes of Health, Bethesda, […], USA).

[5] = system: immobilized rats (muscle atrophy and muscle damage); test: Muscular strength (muscular strength meter) after hindlimb immobilization; assay type: in vivo, rats (C57BL/6J); settings: squalene 100 and 200 mg/kg/day oral for one week after one week immobilization; vs immobilized group, **P<0.01; FIG. 4
Description: Seven-week-old male rats (C57BL/6J; DBL Co., Ltd.) were purchased as experimental animals, and experiments were conducted. All animals were kept at the Yonsei Laboratory Animal Research Center (YLARC, Seoul, Korea), and an environment under which the animals were kept was maintained at a temperature of 23±2° C. and a relative humidity of 55±10%. Before starting experiments, a total of 28 rats were randomly assigned to 7 rats per group, and the groups were divided into a normal group, an immobilized group, 100 mg/kg/day of squalene-administered group (squalene 100-administered group), and 200 mg/kg/day of squalene-administered group (squalene 200-administered group). After one week of adaptation, anesthesia was induced by intraperitoneal injection of 325 mg/kg of tribromoethanol (Sigma-Aldrich). […] One week later, the staples fixed on the gastrocnemius muscle and the sole were removed and squalene was orally administered at a concentration of 100 mg/kg and 200 mg/kg on a daily basis for one week. The normal group and the immobilized group were orally administered saline instead of squalene. After the oral administration period was completed in the above <Example 4-1>, muscular strength of the rats was measured using a muscular strength meter (Columbus Instruments International, Columbus, Ohio, USA). All forelimbs and hindlimbs of the rat were grasped on a grid. […]

[6] = system: p-mTOR in C2C12 muscle cells; test: Western blot of phosphorylated mTOR (p-mTOR) in C2C12 muscle cells treated with squalene; assay type: cell-based; settings: FIG. 1
Description: In a case where mTOR protein is activated by phosphorylation, expression levels of major proteins in muscle cells which are expressed upon differentiation and are associated with muscle protein synthesis and muscle mass increase in a PI3K/Akt signaling pathway were checked. The obtained cells were lysed with an NP-40 buffer solution (ELPISBIOTECH. INC, Daejeon, Korea) containing a protease inhibitor cocktail (Sigma-Aldrich), and centrifuged at 13,000 rpm for 10 minutes to obtain a cell lysate which is a supernatant. A protein concentration in the supernatant was quantitated by Bradford. Then, a predetermined concentration of the proteins was heated for 5 minutes and separated by SDS-PAGE electrophoresis. The separated proteins were transferred to a nitrocellulose membrane. Then, a p-mTOR primary antibody (Cell Signaling Technology, Inc., Beverly, Mass., USA) was diluted with 2.5% bovine serum albumin (BSA; BioWORLD, Dublin, Ohio, USA) at a ratio of 1:1,000, and the resultant was allowed to react with the proteins, which had been transferred to the nitrocellulose membrane, at room temperature for 20 hours. […] Protein bands detected through antibody binding were developed using the ECL Western Blot Detection Reagent (Amersham, Tokyo, Japan), and the developed protein bands were identified using a G:BOX EF imaging system (Syngene, Cambridge, UK).

[7] = system: immobilized rats (muscle atrophy and muscle damage); test: Weight of muscle physically directly damaged by the stapler (regeneration of damaged muscles); assay type: in vivo, rats (C57BL/6J); settings: right hindlimb, squalene 100 and 200 mg/kg/day oral for one week, vs immobilized group, **P<0.01, FIG. 7
Description: (§3) Seven-week-old male rats (C57BL/6J; DBL Co., Ltd.) were purchased as experimental animals, and experiments were conducted. All animals were kept at the Yonsei Laboratory Animal Research Center (YLARC, Seoul, Korea), and an environment under which the animals were kept was maintained at a temperature of 23±2° C. and a relative humidity of 55±10%. Before starting experiments, a total of 28 rats were randomly assigned to 7 rats per group, and the groups were divided into a normal group, an immobilized group, 100 mg/kg/day of squalene-administered group (squalene 100-administered group), and 200 mg/kg/day of squalene-administered group (squalene 200-administered group). After one week of adaptation, anesthesia was induced by intraperitoneal injection of 325 mg/kg of tribromoethanol (Sigma-Aldrich). […] One week later, the staples fixed on the gastrocnemius muscle and the sole were removed and squalene was orally administered at a concentration of 100 mg/kg and 200 mg/kg on a daily basis for one week. The normal group and the immobilized group were orally administered saline instead of squalene. In the rat from which the tibialis anterior muscle of the right hindlimb was extracted in the above <Example 4-3>, a tibialis anterior muscle of the right hind limb, which was physically directly damaged by the stapler, was extracted and weighed.

[8] = system: immobilized rats (muscle atrophy and muscle damage); test: Weight of tibialis anterior muscle of right hindlimb after immobilization; assay type: in vivo, rats (C57BL/6J); settings: muscle not damaged by stapler, squalene 100 and 200 mg/kg/day oral for one week, vs immobilized group, *P<0.05, FIG. 5
Description: as §3, with “After” for “In”, “measurement” for “rat from which the tibialis anterior muscle”, “muscular strength” for “the right hindlimb was extracted”, “4-2> was completed, the experimental animals were anesthetized by intraperitoneal injection” for “4-3>, a tibialis anterior muscle”, “325 mg/kg of tribromoethanol (Sigma-Aldrich), and then sacrificed” for “the right hind limb, which was physically directly damaged”, “cardiac puncture. […]” for “the stapler, was extracted and weighed.”

CC(C)=CCC/C(C)=C/CC/C(C)=C/CC/C=C(\C)CC/C=C(\C)CCC=C(C)C [squalene, (6E,10E,14E,18E)-2,6,10,15,19,23-hexamethyltetracosa-2,6,10,14,18,22-hexaene]
mRNA expression level of atrogin-1 [1]: decreased | mRNA expression level of MuRF1 [2]: decreased | expression level of the p-p70S6K protein [3]: increased | myofiber cross-sectional area in the tibialis anterior muscle [4]: increased in a concentration-dependent manner | muscular strength [5]: restored in a concentration-dependent manner | expression level of phosphorylated mTOR (p-mTOR) [6]: increased | weight of the tibialis anterior muscle physically directly damaged by the stapler [7]: increased in a concentration-dependent manner | weight of the tibialis anterior muscle [8]: increased in a concentration-dependent manner
